Test results reported in patent US20190169221A1, “SUBSTITUTED NUCLEOSIDES, NUCLEOTIDES AND ANALOGS THEREOF” (Janssen BioPharma, Inc., priority 2016, published 2019).
Where two headings read alike, the source gives them in different places.

What was measured:
Human rhinovirus 1B = test: Picornavirus / enterovirus assay, HRV 1B (HeLa-OHIO cells); type: cell-based; details: read-out: HRV 1B EC50
[1] = tested on: Dengue virus type 2 strain New Guinea C (NG-C); test: Dengue viral assay (cytopathic effect, Huh-7.5 cells); type: cell-based; details: read-out: Dengue NGC EC50
Procedure: The Dengue virus type 2 strain New Guinea C (NG-C) and the Dengue virus type 4 strain H241 were purchased from ATCC (Manassas, Va.; item numbers VR-1584 and VR-1490, respectively). The Zika virus strain MR766 was purchased from ATCC (item #VR-1838) and the Zika virus strain IbH 30656 was purchased from BEI Resources (Manassas, Va.; item number NR-500066). 24 h prior to dosing, Huh-7.5 cells were plated in 96 well plates at a density of 1.5×10^5/mL in DMEM medium supplemented with 10% fetal bovine serum, 1% HEPES buffer, 1% Penicillin/Streptomycin and 1% non-essential amino acids (all Mediatech, Manassas, Va.). At the day of infection, serially diluted compounds were added to cells and incubated for 24 h. After the end of the 24 h pre-incubation period, cells were infected with either Dengue virus type 2 NG-C, Dengue virus type 4 H241, Zika virus strain MR766 or Zika virus strain IbH 30656. The virus inoculum was selected to cause 80-90% cytopathic effect in four (Zika) to five (Dengue) days. Infected cells were incubated for four to five days at 37° C., 5% CO2. To develop the assay, 100 μL media was replaced with 100 μl CellTiter-Glo® reagent (Promega, Madison, Wis.) and incubated for 10 mins at R.T. Luminescence was measured on a Victor ×3 multi-label plate reader. Potential compound cytotoxicity was determined using uninfected parallel cultures.

NS5B-BK (Delta-21) = NS5B-BK (Delta-21) (Hepatitis C virus genotype 1b, UniProt P26663); test: biochemical; design: species or system HCV
Sequence of NS5B-BK (Delta-21) (P26663 2420-2989 limits assumed): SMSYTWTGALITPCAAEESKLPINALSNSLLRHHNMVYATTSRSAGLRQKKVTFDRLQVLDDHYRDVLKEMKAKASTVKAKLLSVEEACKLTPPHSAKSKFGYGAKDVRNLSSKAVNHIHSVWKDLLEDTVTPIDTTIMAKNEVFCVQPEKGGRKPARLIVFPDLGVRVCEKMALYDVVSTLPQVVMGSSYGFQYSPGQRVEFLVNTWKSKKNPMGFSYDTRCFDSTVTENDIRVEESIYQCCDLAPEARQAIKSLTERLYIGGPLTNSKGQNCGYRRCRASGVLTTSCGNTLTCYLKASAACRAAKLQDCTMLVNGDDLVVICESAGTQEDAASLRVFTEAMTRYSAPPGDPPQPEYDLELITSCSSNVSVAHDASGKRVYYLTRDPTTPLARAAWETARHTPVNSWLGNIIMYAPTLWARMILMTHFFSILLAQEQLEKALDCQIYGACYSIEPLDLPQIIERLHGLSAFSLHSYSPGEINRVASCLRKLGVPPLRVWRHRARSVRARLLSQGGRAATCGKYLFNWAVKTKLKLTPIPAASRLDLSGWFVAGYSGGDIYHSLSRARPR

[2] = target: human rhinovirus 16 polymerase (HRV16pol) (Human rhinovirus 16, UniProt Q82122); test: Picornavirus polymerase inhibition assay; type: biochemical; details: triphosphates, read-out: Viral Polymerase Inhibition IC50 Picornavirus
Sequence of human rhinovirus 16 polymerase (HRV16pol) (Q82122 1694-2153 limits assumed): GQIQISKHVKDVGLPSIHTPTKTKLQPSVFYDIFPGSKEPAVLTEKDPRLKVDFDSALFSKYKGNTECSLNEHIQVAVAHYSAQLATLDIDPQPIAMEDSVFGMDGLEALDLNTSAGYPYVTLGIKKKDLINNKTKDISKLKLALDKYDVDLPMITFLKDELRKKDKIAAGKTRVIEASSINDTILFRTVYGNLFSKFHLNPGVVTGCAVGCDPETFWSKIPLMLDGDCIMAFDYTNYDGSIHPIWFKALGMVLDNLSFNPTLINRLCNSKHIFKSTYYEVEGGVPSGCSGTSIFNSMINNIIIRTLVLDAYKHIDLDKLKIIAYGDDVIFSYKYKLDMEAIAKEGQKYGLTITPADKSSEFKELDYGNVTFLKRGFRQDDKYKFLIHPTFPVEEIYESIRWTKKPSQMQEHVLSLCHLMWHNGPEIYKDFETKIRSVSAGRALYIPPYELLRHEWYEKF
Procedure: The enzyme activity of human rhinovirus 16 polymerase (HRV16pol) was measured as an incorporation of tritiated NMP into acid-insoluble RNA products. hV16pol assay reactions contained […] recombinant enzyme, 50 nM heteropolymeric RNA, about 0.5 μCi tritiated NTP, 0.1 mM of competing cold NTP, 40 mM Tris-HCl (pH 7.0), […] dithiothreitol and 0.5 mM MgCl2. Standard reactions were incubated for 2.5 h at 30° C., in the presence of increasing concentration of inhibitor. At the end of the reaction, RNA was precipitated with 10% TCA and acid-insoluble RNA products were filtered on a size exclusion 96-well plate. After washing of the plate, scintillation liquid was added and radiolabeled RNA products were detected using standard procedures with a Trilux Microbeta scintillation counter. The compound concentration at which the enzyme-catalyzed rate was reduced by 50% (IC50) was calculated by fitting the data to a non-linear regression (sigmoidal).

Dengue viral polymerase = Dengue viral polymerase (Dengue virus type 2, UniProt P14340); test: biochemical; details: triphosphates; read-out: Viral Polymerase Inhibition IC50 Dengue
[3] = Rhinovirus A, HeLa-OHIO cells, 33° C.
[4] = Huh7.5, Dengue virus type 2 (NG-C strain)
[5] = Dengue virus type 2 (NG-C strain)

C#C[C@]1(O)[C@H](n2cnc3c(N)ncnc32)O[C@](F)(COC(C)=O)[C@H]1OC(C)=O [Compound 2, ((2S,3S,4R,5R)-3-acetoxy-5-(6-amino-9H-purin-9-yl)-4-ethynyl-2-fluoro-4-hydroxytetrahydrofuran-2-yl)methyl acetate]
EC50 (Human rhinovirus 1B; [3]): < 3 µM
EC50 [1, 4]: < 3 µM

C#C[C@]1(O)[C@H](n2cnc3c(N)ncnc32)O[C@](F)(COC(=O)C(C)C)[C@H]1OC(=O)C(C)C [Compound 3, (2S,3S,4R,5R)-5-(6-amino-9H-purin-9-yl)-4-ethynyl-2-fluoro-4-hydroxy-2-((isobutyryloxy)methyl)tetrahydrofuran-3-ylisobutyrate]
EC50 (Human rhinovirus 1B; [3]): < 3 µM
EC50 [1, 4]: < 3 µM

C#C[C@@]1(O)[C@H](O)[C@@H](CO)O[C@H]1n1cnc2c(N)nc(F)nc21 [Compound 4, (2R,3R,4R,5R)-2-(6-amino-2-fluoro-9H-purin-9-yl)-3-ethynyl-5-(hydroxymethyl)tetrahydrofuran-3,4-diol]
EC50 (Human rhinovirus 1B; [3]): 3 to 30 µM
EC50 [1, 4]: > 100 µM

C#C[C@]1(O)[C@H](n2ccc3c(N)ncnc32)O[C@](F)(CO)[C@H]1O [Compound 6, (2S,3S,4R,5R)-5-(4-amino-7H-pyrrolo[2,3-d]pyrimidin-7-yl)-4-ethynyl-2-fluoro-2-(hydroxymethyl)tetrahydrofuran-3,4-diol]
EC50 (Human rhinovirus 1B; [3]): < 3 µM
EC50 [1, 4]: 3 to 30 µM

C#C[C@]1(O)[C@H](n2cc(C(N)=O)c3c(N)ncnc32)O[C@](F)(CO)[C@H]1O [Compound 10, 4-amino-7-((2R,3R,4S,5S)-3-ethynyl-5-fluoro-3,4-dihydroxy-5-(hydroxymethyl)tetrahydrofuran-2-yl)-7H-pyrrolo[2,3-d]pyrimidine-5-carboxamide]
EC50 (Human rhinovirus 1B; Rhinovirus A): > 100 µM
EC50 [1, 4]: 3 to 30 µM

C[C@@]1(O)[C@H](O)[C@@H](CO)O[C@H]1n1cnc2c(N)nc(F)nc21 [Compound 16]
EC50 (Human rhinovirus 1B; [3]): 3 to 30 µM
EC50 [1, 4]: > 100 µM

C#C[C@@]1(O)[C@H](O)[C@@H](COP(=O)(O)OP(=O)(O)OP(=O)(O)O)O[C@H]1n1cnc2c(N)nc(F)nc21 [Compound 17]
IC50 (NS5B-BK (Delta-21)): < 3 µM
IC50 [2]: < 3 µM
IC50 (Dengue viral polymerase): 3 to 30 µM

C#C[C@@]1(O)[C@H](O)[C@@H](COP(=O)(O)OP(=O)(O)OP(=O)(O)O)O[C@H]1n1cnc2c(N)nc(N)nc21 [Compound 18]
IC50 (NS5B-BK (Delta-21)): < 3 µM
IC50 [2]: < 3 µM
IC50 (Dengue viral polymerase): 3 to 30 µM

C#C[C@]1(O)[C@H](n2ccc3c(N)ncnc32)O[C@](F)(COP(=O)(O)OP(=O)(O)OP(=O)(O)O)[C@H]1O [Compound 19]
IC50 (NS5B-BK (Delta-21)): < 3 µM
IC50 [2]: < 3 µM
IC50 (Dengue viral polymerase): 3 to 30 µM

C[C@]1(O)[C@H](n2cnc3c(N)ncnc32)O[C@](F)(COP(=O)(O)OP(=O)(O)OP(=O)(O)O)[C@H]1O [Compound 20]
IC50 (NS5B-BK (Delta-21)): < 3 µM
IC50 [2]: < 3 µM
IC50 (Dengue viral polymerase): 3 to 30 µM

C[C@]1(F)[C@H](n2cnc3c(N)nc(N)nc32)O[C@](F)(COP(=O)(O)OP(=O)(O)OP(=O)(O)O)[C@H]1O [Compound 21]
IC50 (NS5B-BK (Delta-21)): < 3 µM
IC50 [2]: < 3 µM
IC50 (Dengue viral polymerase): 30 to 100 µM

C[C@]1(F)[C@H](n2cnc3c(N)ncnc32)O[C@](F)(COP(=O)(O)OP(=O)(O)OP(=O)(O)O)[C@H]1O [Compound 22]
IC50 (NS5B-BK (Delta-21)): < 3 µM
IC50 [2]: < 3 µM
IC50 (Dengue viral polymerase): 3 to 30 µM

C#C[C@]1(O)[C@H](n2cnc3c(N)ncnc32)O[C@](F)(COP(=O)(O)OP(=O)(O)OP(=O)(O)O)[C@H]1O [Compound 23]
IC50 (NS5B-BK (Delta-21)): < 3 µM
IC50 [2]: < 3 µM
IC50 (Dengue viral polymerase): < 3 µM

C#C[C@@]1(O)[C@H](O)[C@@H](CO)O[C@H]1c1cnc2c(N)ncnn12 [Compound 27, (2S,3R,4R,5R)-2-(4-aminoimidazo[2,1-f][1,2,4]triazin-7-yl)-3-ethynyl-5-(hydroxymethyl)tetrahydrofuran-3,4-diol]
EC50 (Human rhinovirus 1B; [3]): < 3 µM
EC50 [1, 4]: < 3 µM

C#C[C@]1(OC(C)=O)[C@H](n2cnc3c(N)ncnc32)O[C@](F)(COC(C)=O)[C@H]1OC(C)=O [Compound 34, (2S,3S,4R,5R)-2-(acetoxymethyl)-5-(6-amino-9H-purin-9-yl)-4-ethynyl-2-fluorotetrahydrofuran-3,4-diyldiacetate]
EC50 (Human rhinovirus 1B; HeLa-OHIO cells, 33° C.): < 3 µM
EC50 [1, 5]: < 3 µM

C#C[C@]1(O)[C@H](n2cnc3c(N)ncnc32)O[C@](F)(COC(=O)CC)[C@H]1OC(=O)CC [Compound 36]
EC50 (Human rhinovirus 1B; [3]): < 3 µM
EC50 [1, 4]: < 3 µM

C#C[C@]1(O)[C@H](n2cnc3c(N)ncnc32)O[C@](F)(COC(=O)CCC)[C@H]1OC(=O)CCC [Compound 37, (2S,3S,4R,5R)-5-(6-amino-9H-purin-9-yl)-2-((butyryloxy)methyl)-4-ethynyl-2-fluoro-4-hydroxytetrahydrofuran-3-ylbutyrate]
EC50 (Human rhinovirus 1B; [3]): < 3 µM
EC50 [1, 4]: < 3 µM

C#C[C@]1(OC(=O)CC)[C@H](n2cnc3c(N)ncnc32)O[C@](F)(COC(=O)CC)[C@H]1OC(=O)CC [Compound 38, (2S,3S,4R,5R)-5-(6-amino-9H-purin-9-yl)-4-ethynyl-2-fluoro-2-((propionyloxy)methyl)tetrahydrofuran-3,4-diyldipropionate]
EC50 (Human rhinovirus 1B; [3]): < 3 µM
EC50 [1, 4]: < 3 µM

C#C[C@]1(O)[C@H](n2cnc3c(N)ncnc32)O[C@](F)(CO)[C@H]1OC(=O)CCCCCCCCC [Compound 39, (2S,3S,4R,5R)-5-(6-amino-9H-purin-9-yl)-4-ethynyl-2-fluoro-4-hydroxy-2-(hydroxymethyl)tetrahydrofuran-3-yldecanoate]
EC50 (Human rhinovirus 1B; [3]): < 3 µM
EC50 [1, 4]: < 3 µM

C#C[C@]1(O)[C@H](n2cnc3c(NC(=O)OC(C)(C)C)ncnc32)O[C@](F)(COC(c2ccccc2)(c2ccccc2)c2ccc(OC)cc2)[C@H]1OC(=O)CCCCCCC [Compound 40]
EC50 (Human rhinovirus 1B; HeLa-OHIO cells, 33° C.): < 3 µM
EC50 [1, 5]: < 3 µM

C#C[C@]1(O)[C@H](n2cnc3c(N)ncnc32)O[C@](F)(CO)[C@H]1OC(=O)[C@@H](N)C(C)C [Compound 41, (2S,3S,4R,5R)-5-(6-amino-9H-purin-9-yl)-4-ethynyl-2-fluoro-4-hydroxy-2-(hydroxymethyl)tetrahydrofuran-3-yl L-valinate]
EC50 (Human rhinovirus 1B; [3]): < 3 µM
EC50 [1, 4]: < 3 µM

C#C[C@]1(O)[C@H](n2cnc3c(NC(=O)OC(C)(C)C)ncnc32)O[C@](F)(COC(c2ccccc2)(c2ccccc2)c2ccc(OC)cc2)[C@H]1OC(=O)CCCCCCCCCCC [Compound 42, (2S,3S,4R,5R)-5-(6-((tert-butoxycarbonyl)amino)-9H-purin-9-yl)-4-ethynyl-2-fluoro-4-hydroxy-2-(((4-methoxyphenyl)diphenylmethoxy)methyl)tetrahydrofuran-3-yl-dodecanoate]
EC50 (Human rhinovirus 1B; [3]): < 3 µM
EC50 [1, 4]: < 3 µM

C#C[C@]1(O)[C@H](n2cnc3c(N)ncnc32)O[C@](F)(COC(=O)CCCCCCCCC)[C@H]1O [Compound 44, ((2S,3S,4R,5R)-5-(6-amino-9H-purin-9-yl)-4-ethynyl-2-fluoro-3,4-dihydroxytetrahydrofuran-2-yl)methyldecanoate]
EC50 (Human rhinovirus 1B; [3]): < 3 µM
EC50 [1, 4]: < 3 µM

C#C[C@]1(O)[C@H](n2cnc3c(N)ncnc32)O[C@](F)(CO)[C@H]1OC(=O)NCCC [Compound 49, (2S,3S,4R,5R)-5-(6-amino-9H-purin-9-yl)-4-ethynyl-2-fluoro-4-hydroxy-2-(hydroxymethyl)tetrahydrofuran-3-ylpropylcarbamate]
EC50 (Human rhinovirus 1B; HeLa-OHIO cells, 33° C.): 3 to 30 µM
EC50 [1, 5]: 30 to 100 µM

(2S,3S,4R,5R)-5-(4-amino-5-fluoro-7H-pyrrolo[2,3-d]pyrimidin-7-yl)-4-ethynyl-2-fluoro-2-(hydroxymethyl)tetrahydrofuran-3,4-diol [Compound 31]
EC50 (Human rhinovirus 1B; HeLa-OHIO cells, 33° C.): < 3 µM
EC50 [1, 5]: < 3 µM
